# Test results published in PubChem BioAssay (NCI).
#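 Compound exposure: 48 hours, 5 concentrations, 96-well plates. TGI: concentration producing complete growth inhibition.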
# How the values were obtained:
# Test in all cases: NCI tumour cell line growth inhibition, 48 h
# MDA-MB-435 = tested on: MDA-MB-435
# MDA-N = tested on: MDA-N
# PC-3 prostate = tested on: PC-3 prostate
# MDA-MB-231 breast = tested on: MDA-MB-231 breast
# HS 578T breast = tested on: HS 578T breast
# DU-145 prostate = tested on: DU-145 prostate
# T-47D breast = tested on: T-47D breast
# TK-10 renal = tested on: TK-10 renal
# P388 leukemia = tested on: P388 leukemia
# 786-0 renal = tested on: 786-0 renal
structure (smiles),measurement,setting,value
NC(CCCCCCCCCCP(=O)(O)O)C(=O)O (configuration not stated),TGI,MDA-MB-435,> 100 µM
same,TGI,MDA-N,> 100 µM
same,TGI,PC-3 prostate,> 100 µM
same,TGI,MDA-MB-231 breast,> 100 µM
same,TGI,HS 578T breast,> 100 µM
same,TGI,DU-145 prostate,> 100 µM
same,TGI,T-47D breast,> 100 µM
same,TGI,TK-10 renal,> 100 µM
N/C(=N\N=C/c1ccc(O)c(O)c1O)NO,TGI,P388 leukemia,29.4 µM
O=C1N(Cl)C(=O)C(c2ccc(Cl)cc2)(c2ccc(Cl)cc2)N1Cl,TGI,786-0 renal,> 100 µM
same,TGI,TK-10 renal,> 100 µM
CCCCCCNC(=O)C(C)C1CCC2(C)C=CC(=O)C(C)=C2C1O (configuration not stated),TGI,P388 leukemia,> 100 µM
